Consider three sequences from patent US20210227868A1, “Formula with specific beta-lactoglobulin peptides” (N.V. Nutricia, priority 2018, published 2021).

Holding throughout (assay): T-cell proliferation assay (stimulation index)
Common to all, as to format: cell-based, human

Test [1] has as its system TCL C. The following applies: SI>=2 positive. On the procedure: (§1) Synthetic peptides were obtained from JPT technologies. Only peptides containing at least 9 AAs were taken into account, as this is the minimal size for binding to MHC class II molecules and subsequent T-cell recognition (Holland et al, Front Immunol 2013 Jul 1; 4:172.) Synthetic peptides (JPT technologies) identical to the peptides identified in all batches of the HP of example 1 were dissolved in dimethylsulfoxide (Sigma Aldrich) at a concentration of 5.3 mM. The peptides were tested on cow's milk-specific T-cell lines (TCLs) from three different donors. The peptides were tested on cow's milk protein-specific T-cell lines (TCLs) from three infant donors, diagnosed with cow's milk protein allergy. […] Proliferation was determined as described previously (Ruiter et al, Clin Exp Allergy 2006, 36(3):303-310). Stimulation indexes (Sls, ratio between proliferation of allergen/peptide-stimulated and non-stimulated T cells) were calculated and a SI≥2 was considered positive.
(§2) To confirm that the peptides identified in HP were recognized by T cells, synthetic peptides identical to these identified peptides were tested on cow's milk-specific human TCLs. As there was a considered overlap between the identified peptides, five peptides were tested (Table 7) that were identified in all batches and differed with more than 9A from each other. All tested peptides were able to induce proliferation (FIG. 2). […] This was also seen with the in silico prediction data (data not shown). […] As peptide LIV . . . […] SLL (AA #1-32) did, the region containing AA #28-32 (DISLL) was essential for the response of TCL A. Unexpectedly, TCL C recognized peptide LIV . . . AAS (AA #1-27), while the longer peptide containing the same sequence with 5 additional AAs, LIV . . .

Test [2] deals with TCL A. The settings on record: SI>=2 positive. The method, then: as §1, §2
Test [3] deals with cow's milk-specific T-cell lines (TCLs). The following applies: TCLs of three cow's milk allergic donors; SI>=2 positive. On the procedure:
as §1, §2

With “LIVTQTMKGLDIQKVAGTWYSLAMAASDISLL (beta-lactoglobulin peptide fragment) [SEQ ID NO: 11]”, the T-cell proliferation entry in test [1] is recorded as “not able to induce a proliferative response”; in test [2], “did”. With “TMKGLDIQKVAGTWYSLAMAASDISLLDAQ (beta-lactoglobulin peptide fragment) [SEQ ID NO: 4]”, the “T-cell proliferation / reactivity” value in test [3] is “reactivity of every cell line was covered”. For the sequence “LIVTQTMKGLDIQKVAGTWYSLAMAAS (beta-lactoglobulin peptide fragment) [SEQ ID NO: 9]”, the T-cell proliferation entry is listed as “recognized” in test [1] and “not able to induce proliferation” in test [2].
